Experimental data taken from article PMC4472624, “Pharmacokinetics of daptomycin in patients undergoing low-flow continuous venovenous hemodiafiltration” (Critical Care, 2015).
Read-outs that look alike come from different tables or passages of the source.

What was measured:
[1] = Pharmacokinetics of daptomycin in patients undergoing low-flow CVVHDF; type: in vivo, human; conditions: 6 mg/kg i.v. every 48 hours, HPLC; for AUC / half-life: 6 mg/kg; for AUC: read-out: area under the concentration-time curve (AUC); for half-life: read-out: elimination half-life (t1/2) (converted)
Experimental: DAP (6 mg/kg) was administered intravenously every 48 hours to CVVHDF patients in the ICU. Blood and filtrate samples were collected at 0, 1, 1.5, 2, 5, 12, 24, and 48 hours after infusion. All collected samples were analyzed using HPLC according to the method of Tobin et al.. Maximum concentration (Cmax), elimination half-life (t1/2), area AUC, Cmin, volume of distribution (Vd), clearance (CL), fraction unbound, and sieving coefficient (Sc) were evaluated. Patient characteristics and CVVHDF parameters including blood, dialysate, and filtration flow rates were recorded.

[2] = cited from earlier work
Text: In Japan, CVVHDF is preferentially performed with lower flow rates. Investigating effects of flow rate on DAP removal during co ...

[3] = low-flow CVVHDF, blood and filtrate samples, mean of three patients
[4] = human, blood, iv, low-flow CVVHDF, single patient, first listed
[5] = human, blood, iv, low-flow CVVHDF, single patient, second listed
[6] = human, blood, iv, low-flow CVVHDF, single patient, third listed

CCCCCCCCCC(=O)N[C@@H](Cc1c[nH]c2ccccc12)C(=O)N[C@H](CC(N)=O)C(=O)N[C@@H](CC(=O)O)C(=O)N[C@@H]1C(=O)NCC(=O)N[C@@H](CCCN)C(=O)N[C@@H](CC(=O)O)C(=O)N[C@H](C)C(=O)N[C@@H](CC(=O)O)C(=O)NCC(=O)N[C@H](CO)C(=O)N[C@@H]([C@H](C)CC(=O)O)C(=O)N[C@@H](CC(=O)c2ccccc2N)C(=O)O[C@@H]1C [DAP, daptomycin]
trough serum concentration (Cmin) ([1]; low-flow CVVHDF, single patient, first listed): 2300 ng/mL | trough serum concentration (Cmin) ([1]; low-flow CVVHDF, single patient, second listed): 24700 ng/mL | trough serum concentration (Cmin) ([1]; low-flow CVVHDF, single patient, third listed): 14000 ng/mL | CL of dialyzer [1, 3]: 1.20 ± 0.39 mL/min | sieving coefficient (Sc) [1, 3]: 0.08 ± 0.03 | CL of dialyzer ([1]; low-flow CVVHDF, blood and filtrate samples, single patient, first listed): 1.70 mL/min | CL of dialyzer ([1]; low-flow CVVHDF, blood and filtrate samples, single patient, second listed): 0.88 mL/min | CL of dialyzer ([1]; low-flow CVVHDF, blood and filtrate samples, single patient, third listed): 0.96 mL/min | AUC [1, 4]: 471 µg·h/mL | half-life [1, 4]: 18.6 h | AUC [1, 5]: 967 µg·h/mL | half-life [1, 5]: 11.5 h | AUC [1, 6]: 1260 µg·h/mL | half-life [1, 6]: 70.5 h | fraction unbound ([1]; human, blood, iv, ICU patients on low-flow CVVHDF, mean of three patients): 0.058 | clearance ([1]; human, blood, iv, ICU patients on low-flow CVVHDF, mean of three patients, read-out: clearance (CL)): 9.47 ± 4.56 mL/min | Vd ([1]; human, blood, iv, ICU patients on low-flow CVVHDF, mean of three patients, read-out: volume of distribution (Vd)): 26 ± 20.9 L | Cmax ([1]; human, iv, ICU patients on low-flow CVVHDF, blood samples 0-48 hours, mean of three patients, read-out: Maximum concentration (Cmax)): 50100 ± 12700 ng/mL | AUC/MIC required to obtain clinical success [2]: 1,061 mg hour/l
